According to US12364694B2 (priority 2018, dated 2025):

Experiments:
[1] = molecular target: serotonin 5-HT2 receptor family; settings: mice, oral dosing, subcutaneous DOI; cited from earlier work
dopamine D1 receptor = molecular target: T1, dopamine D1 receptor (Homo sapiens, UniProt P21728); assay: Radioligand binding assay, human recombinant receptor in CHO cells; settings: read-out: % Inhibition (mean) of control specific binding
T1 construct: expressed in transfected cells; host or cells: CHO

[2] = molecular target: T2, serotonin transporter (SERT) (Homo sapiens, UniProt P31645); assay: Radioligand binding assay, human recombinant transporter in CHO cells; settings: read-out: % Inhibition (mean) of control specific binding
T2 construct: expressed in transfected cells; host or cells: CHO

[3] = tested on: protein phosphorylation (ERK1, ERK2, Glul, NR2B and TH) in mice nucleus accumbens; settings: cited from earlier work
mouse formalin paw test = settings: subcutaneous paw pre-treatment 30 minutes prior to […] formalin, three doses; cited from earlier work
[4] = molecular target: T3, serotonin 5-HT2A receptor (Homo sapiens, UniProt P28223); assay: Radioligand binding assay, human recombinant receptor in HEK cells; settings: read-out: % Inhibition (mean) of control specific binding
T3 construct: expressed in transfected cells; host or cells: HEK-293

dopamine D2S receptor = molecular target: T4, dopamine D2S receptor (Homo sapiens, UniProt P14416); assay: as above; settings: read-out: % Inhibition (mean) of control specific binding
T4 construct: expressed in transfected cells; host or cells: HEK-293

[5] = tested on: mouse marble-burying model for OCD; settings: positive control, after 30 minutes; cited from earlier work
[6] = rat, in vivo, po, 10 mg/kg
in vivo = settings: rat
male Sprague-Dawley rats = settings: cited from earlier work; for tolerance during repeated dosing: subcutaneous dosing for 28 days, 0.3 and 3 mg/kg; for physical dependence upon cessation of dosing: withdrawal after 28 days subcutaneous dosing

T4 sequence (P14416 1-414 isoform P14416-2): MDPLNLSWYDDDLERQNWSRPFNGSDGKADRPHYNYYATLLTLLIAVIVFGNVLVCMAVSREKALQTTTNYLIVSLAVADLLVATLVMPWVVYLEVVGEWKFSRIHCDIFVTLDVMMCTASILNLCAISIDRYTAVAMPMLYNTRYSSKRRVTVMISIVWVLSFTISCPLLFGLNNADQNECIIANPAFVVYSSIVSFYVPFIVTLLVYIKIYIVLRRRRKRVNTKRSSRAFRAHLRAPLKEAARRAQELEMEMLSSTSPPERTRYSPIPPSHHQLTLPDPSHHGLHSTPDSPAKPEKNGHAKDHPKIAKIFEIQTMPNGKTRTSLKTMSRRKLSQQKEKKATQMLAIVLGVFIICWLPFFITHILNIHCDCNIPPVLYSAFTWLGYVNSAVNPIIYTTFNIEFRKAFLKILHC
T2 sequence (P31645 whole entry): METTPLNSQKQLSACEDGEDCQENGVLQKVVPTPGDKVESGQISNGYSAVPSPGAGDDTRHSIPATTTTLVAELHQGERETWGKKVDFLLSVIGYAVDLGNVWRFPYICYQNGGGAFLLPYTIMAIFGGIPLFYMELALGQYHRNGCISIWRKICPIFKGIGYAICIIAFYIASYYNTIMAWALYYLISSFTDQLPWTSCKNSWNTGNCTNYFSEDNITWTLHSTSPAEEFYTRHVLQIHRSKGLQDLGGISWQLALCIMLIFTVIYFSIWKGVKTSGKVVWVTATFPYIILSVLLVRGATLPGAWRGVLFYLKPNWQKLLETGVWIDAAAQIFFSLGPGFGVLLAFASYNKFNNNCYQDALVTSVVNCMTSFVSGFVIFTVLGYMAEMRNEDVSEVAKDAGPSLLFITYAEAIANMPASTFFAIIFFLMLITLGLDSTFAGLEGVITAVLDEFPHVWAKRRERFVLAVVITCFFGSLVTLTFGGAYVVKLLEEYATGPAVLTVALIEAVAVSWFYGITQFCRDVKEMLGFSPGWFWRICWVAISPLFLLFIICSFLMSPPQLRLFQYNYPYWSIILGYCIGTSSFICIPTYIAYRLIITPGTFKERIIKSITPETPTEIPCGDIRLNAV
T1 sequence (P21728 whole entry): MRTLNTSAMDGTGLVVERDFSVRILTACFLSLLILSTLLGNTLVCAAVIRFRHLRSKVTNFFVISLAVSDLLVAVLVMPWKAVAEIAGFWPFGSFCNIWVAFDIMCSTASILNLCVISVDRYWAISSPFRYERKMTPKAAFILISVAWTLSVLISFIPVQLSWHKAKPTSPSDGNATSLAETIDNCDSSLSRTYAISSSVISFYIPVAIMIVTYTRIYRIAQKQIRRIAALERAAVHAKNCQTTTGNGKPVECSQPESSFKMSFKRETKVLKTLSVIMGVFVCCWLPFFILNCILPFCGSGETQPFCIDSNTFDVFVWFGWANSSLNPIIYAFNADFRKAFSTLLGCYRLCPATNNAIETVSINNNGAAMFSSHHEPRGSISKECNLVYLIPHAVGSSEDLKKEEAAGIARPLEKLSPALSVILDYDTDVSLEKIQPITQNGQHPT
T3 sequence (P28223 whole entry): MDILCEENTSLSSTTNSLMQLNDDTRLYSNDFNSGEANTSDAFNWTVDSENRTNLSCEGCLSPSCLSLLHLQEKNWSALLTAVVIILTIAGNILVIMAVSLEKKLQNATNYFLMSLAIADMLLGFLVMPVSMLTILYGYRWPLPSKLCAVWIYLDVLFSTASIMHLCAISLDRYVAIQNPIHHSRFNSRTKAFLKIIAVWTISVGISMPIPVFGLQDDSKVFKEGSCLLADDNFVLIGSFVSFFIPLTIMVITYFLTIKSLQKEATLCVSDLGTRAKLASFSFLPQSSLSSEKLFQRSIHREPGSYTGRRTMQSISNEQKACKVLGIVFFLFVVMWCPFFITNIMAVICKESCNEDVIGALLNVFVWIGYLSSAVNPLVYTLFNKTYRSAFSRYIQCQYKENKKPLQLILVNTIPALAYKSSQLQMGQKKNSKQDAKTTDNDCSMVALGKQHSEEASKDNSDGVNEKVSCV

O=C1CN2c3c(cccc3[C@@H]3CN(CCCOc4ccc(F)cc4)CC[C@@H]32)N1 [Formula A]
EC50 blocking DOI-induced head twitch [1]: 0.44 mg/kg, p.o. | inhibition at 0.1 µM (dopamine D1 receptor): 43.4% | inhibition at 1 µM [2]: 33.4% | effect on ERK2 phosphorylation [3]: marginal effects | effect on GluR1 phosphorylation [3]: marginal effects | effect on NR2B phosphorylation [3]: neither the compound of Formula A nor the compound of Formula B has a significant effect | effect on TH phosphorylation [3]: neither the compound of Formula A nor the compound of Formula B has a significant effect | early phase acute pain response and late phase delayed inflammatory response (mouse formalin paw test): dose-dependently attenuates both the early phase acute pain response and the late phase delayed inflammatory response | inhibition at 0.01 µM [4]: 63% | inhibition at 0.3 µM (dopamine D2S receptor): 53.6%

O=C(CCCN1CCC(O)(c2ccc(Cl)cc2)CC1)c1ccc(F)cc1 [haloperidol]
increase in TH phosphorylation [3]: 400-500%

Cc1cccc(C#Cc2ccccc2)n1 [MPEP, 2-methyl-6-(phenylethynyl)pyridine]
Marbles Buried [5]: 0.2

[2H]C([2H])(CCN1CC[C@H]2[C@@H](C1)c1cccc3c1N2CC(=O)N3)Oc1ccc(F)cc1 [Example 7, (6bR,10aS)-8-(3,3-dideuterio-3-(4-fluorophenoxy)propyl)-6b,7,8,9,10,10a-hexahydro-1H-pyrido[3′,4′:4,5]pyrrolo[1,2,3-de]quinoxalin-2(3H)-one]
inhibition at 0.1 µM (dopamine D1 receptor): 34.8% | inhibition at 1 µM [2]: 31.1% | inhibition at 0.01 µM [4]: 63.5% | inhibition at 0.3 µM (dopamine D2S receptor): 53.3%

[2H]c1c([2H])c(OC([2H])([2H])C([2H])([2H])C([2H])([2H])N2CC[C@H]3[C@@H](C2)c2cccc4c2N3C([2H])([2H])C(=O)N4)c([2H])c([2H])c1F [Example 8, (6bR,10aS)-1,1-dideuterio-8-(1,1,2,2,3,3-hexadeuterio-3-(2,3,5,6-tetradeuterio-4-fluorophenoxy)propyl)-6b,7,8,9,10,10a-hexahydro-1H-pyrido[3′,4′:4,5]pyrrolo[1,2,3-de]quinoxalin-2(3H)-one]
plasma concentration [6]: BLQ | AUC (in vivo; po, 10 mg/kg): 3390 ng·h/mL | Cmax (in vivo; po, 10 mg/kg): 68.4 ng/mL | Tmax (in vivo; po, 10 mg/kg): 6 h | concentration at 0.033 h (in vivo; po, 10 mg/kg): 1.3 ng/mL | concentration at 0.083 h (in vivo; po, 10 mg/kg): 8.6 ng/mL | concentration at 0.5 h (in vivo; po, 10 mg/kg): 45.8 ng/mL | concentration at 1 h (in vivo; po, 10 mg/kg): 62.4 ng/mL | concentration at 2 h (in vivo; po, 10 mg/kg): 133 ng/mL | concentration at 6 h (in vivo; po, 10 mg/kg): 245 ng/mL | concentration at 8 h (in vivo; po, 10 mg/kg): 187 ng/mL | concentration at 12 h (in vivo; po, 10 mg/kg): 181 ng/mL | concentration at 24 h (in vivo; po, 10 mg/kg): 3.3 ng/mL | concentration at […] (in vivo; po, 10 mg/kg): 46.7 ng/mL | AUC (in vivo; sc, 3 mg/kg): 494 ng·h/mL | Cmax (in vivo; sc, 3 mg/kg): 78.9 ng/mL | Tmax (in vivo; sc, 3 mg/kg): 1 h | concentration at 0.033 h (in vivo; sc, 3 mg/kg): 5.7 ng/mL | concentration at 0.083 h (in vivo; sc, 3 mg/kg): 25.7 ng/mL | concentration at 0.5 h (in vivo; sc, 3 mg/kg): 76.4 ng/mL | concentration at 1 h (in vivo; sc, 3 mg/kg): 78.9 ng/mL | concentration at 2 h (in vivo; sc, 3 mg/kg): 62.9 ng/mL | concentration at 6 h (in vivo; sc, 3 mg/kg): 14.1 ng/mL | concentration at 8 h (in vivo; sc, 3 mg/kg): 6.5 ng/mL | concentration at 12 h (in vivo; sc, 3 mg/kg): 4.1 ng/mL | concentration at 24 h (in vivo; sc, 3 mg/kg): 2.1 ng/mL | concentration at 48 h (in vivo; sc, 3 mg/kg): 2.4 ng/mL | concentration at 72 h (in vivo; sc, 3 mg/kg): 1.4 ng/mL | concentration at […] (in vivo; sc, 3 mg/kg): 46 ng/mL

[2H]C([2H])(Oc1ccc(F)cc1)C([2H])([2H])C([2H])([2H])N1CC[C@H]2[C@@H](C1)c1cccc3c1N2CC(=O)N3 [Example 2, (6bR,10aS)-8-(1,1,2,2,3,3-d6-3-(4-fluorophenoxy)propyl)-6b,7,8,9,10,10a-hexahydro-1H-pyrido[3′,4′: 4,5]pyrrolo[1,2,3-de]quinoxalin-2(3H)-one]
plasma concentration [6]: BLQ | AUC (in vivo; po, 10 mg/kg): 3660 ng·h/mL | Cmax (in vivo; po, 10 mg/kg): 64.6 ng/mL | Tmax (in vivo; po, 10 mg/kg): 6 h | concentration at 0.033 h (in vivo; po, 10 mg/kg): 1 ng/mL | concentration at 0.083 h (in vivo; po, 10 mg/kg): 10.6 ng/mL | concentration at 0.5 h (in vivo; po, 10 mg/kg): 55.7 ng/mL | concentration at 1 h (in vivo; po, 10 mg/kg): 72.3 ng/mL | concentration at 2 h (in vivo; po, 10 mg/kg): 143 ng/mL | concentration at 6 h (in vivo; po, 10 mg/kg): 260 ng/mL | concentration at 8 h (in vivo; po, 10 mg/kg): 200 ng/mL | concentration at 12 h (in vivo; po, 10 mg/kg): 196 ng/mL | concentration at 24 h (in vivo; po, 10 mg/kg): 3 ng/mL | concentration at […] (in vivo; po, 10 mg/kg): 56.9 ng/mL | AUC (in vivo; sc, 3 mg/kg): 492 ng·h/mL | Cmax (in vivo; sc, 3 mg/kg): 81.4 ng/mL | Tmax (in vivo; sc, 3 mg/kg): 1 h | concentration at 0.033 h (in vivo; sc, 3 mg/kg): 6 ng/mL | concentration at 0.083 h (in vivo; sc, 3 mg/kg): 27.5 ng/mL | concentration at 0.5 h (in vivo; sc, 3 mg/kg): 80 ng/mL | concentration at 1 h (in vivo; sc, 3 mg/kg): 81.4 ng/mL | concentration at 2 h (in vivo; sc, 3 mg/kg): 65.2 ng/mL | concentration at 6 h (in vivo; sc, 3 mg/kg): 15 ng/mL | concentration at 8 h (in vivo; sc, 3 mg/kg): 6.7 ng/mL | concentration at 12 h (in vivo; sc, 3 mg/kg): 3.9 ng/mL | concentration at 24 h (in vivo; sc, 3 mg/kg): 2.1 ng/mL | concentration at 48 h (in vivo; sc, 3 mg/kg): 2 ng/mL | concentration at 72 h (in vivo; sc, 3 mg/kg): 1 ng/mL | concentration at […] (in vivo; sc, 3 mg/kg): 48.2 ng/mL

[2H]c1c([2H])c(OCCCN2CC[C@H]3[C@@H](C2)c2cccc4c2N3CC(=O)N4)c([2H])c([2H])c1F [Example 6, (6bR,10aS)-8-(3-(2,3,5,6-tetradeuterio-4-fluorophenoxy)propyl)-6b,7,8,9,10,10a-hexahydro-1H-pyrido[3′,4′:4,5]pyrrolo[1,2,3-de]quinoxalin-2(3H)-one]
inhibition at 0.1 µM (dopamine D1 receptor): 32.6% | inhibition at 1 µM [2]: 29.1% | inhibition at 0.01 µM [4]: 60.2% | inhibition at 0.3 µM (dopamine D2S receptor): 48.7%

CN1CC[C@]23c4c5ccc(O)c4O[C@H]2[C@@H](O)C=C[C@H]3[C@H]1C5 [Morphine, reference compound]
tolerance during repeated dosing (male Sprague-Dawley rats): clear signs of tolerance and dependence | physical dependence upon cessation of dosing (male Sprague-Dawley rats): clear signs of tolerance and dependence

[2H]C([2H])(CC([2H])([2H])N1CC[C@H]2[C@@H](C1)c1cccc3c1N2CC(=O)N3)Oc1ccc(F)cc1 [Example 3, (6bR,10aS)-8-(1,1,3,3-d4-3-(4-fluorophenoxy)propyl)-6b,7,8,9,10,10a-hexahydro-1H-pyrido[3′,4′:4,5]pyrrolo[1,2,3-de]quinoxalin-2(3H)-one]
inhibition at 0.1 µM (dopamine D1 receptor): 36.3% | inhibition at 1 µM [2]: 31.8% | inhibition at 0.01 µM [4]: 64.1% | inhibition at 0.3 µM (dopamine D2S receptor): 55.1%

[2H]C1([2H])C(=O)Nc2cccc3c2N1[C@H]1CCN(CCCOc2ccc(F)cc2)C[C@@H]31 [Example 1, (6bR,10aS)-1,1-d2-8-(3-(4-fluorophenoxy)propyl)-6b,7,8,9,10,10a-hexahydro-1H-pyrido[3′,4′:4,5]pyrrolo[1,2,3-de]quinoxalin-2(3H)-one]
inhibition at 0.1 µM (dopamine D1 receptor): 36.6% | inhibition at 1 µM [2]: 34.5% | inhibition at 0.01 µM [4]: 64.7% | inhibition at 0.3 µM (dopamine D2S receptor): 47.5%

[2H]C1([2H])C(=O)Nc2cccc3c2N1[C@H]1CCN(C([2H])([2H])C([2H])([2H])C([2H])([2H])Oc2ccc(F)cc2)C[C@@H]31 [Example 9, (6bR,10aS)-1,1-dideuterio-8-(1,1,2,2,3,3-hexadeuterio-3-(4-fluorophenoxy)-propyl)-6b,7,8,9,10,10a-hexahydro-1H-pyrido[3′,4′:4,5]pyrrolo[1,2,3-de]quinoxalin-2(3H)-one]
inhibition at 0.1 µM (dopamine D1 receptor): 35.2% | inhibition at 1 µM [2]: 28.4% | inhibition at 0.01 µM [4]: 60.1% | inhibition at 0.3 µM (dopamine D2S receptor): 49.6%

(6bR,10aS)-8-(1,1,3,3-d4-3-(4-fluorophenoxy)propyl)-6b,7,8,9,10,10a-hexahydro-1H-pyrido[3′,4′:4,5]pyrrolo[1,2,3-de]quinoxalin-2(3H)-one [Example 3]
tolerance during repeated dosing (male Sprague-Dawley rats): does not produce tolerance | physical dependence upon cessation of dosing (male Sprague-Dawley rats): not to produce a syndrome of physical dependence

O=C1CN2c3c(cccc3[C@@H]3CN(CCCC(=O)c4ccc(F)cc4)CC[C@@H]32)N1 [Formula B, 4-((6bR,10aS)-2-oxo-2,3,6b,9,10,10a-hexahydro-1H,7H-pyrido[3′,4′:4,5]pyrrolo[1,2,3-de]quinoxalin-8-yl)-1-(4-fluoro-phenyl)-butan-1-one]
EC50 blocking DOI-induced head twitch [1]: 0.23 mg/kg, p.o. | effect on ERK2 phosphorylation [3]: marginal effects | effect on GluR1 phosphorylation [3]: marginal effects | effect on NR2B phosphorylation [3]: neither the compound of Formula A nor the compound of Formula B has a significant effect | effect on TH phosphorylation [3]: neither the compound of Formula A nor the compound of Formula B has a significant effect
